# Measurements published in publication PMC4014072 (Molecular and cellular biochemistry, 2010).
# Molecular target: LdLip3::HA (LdLip3 secretory lipase) (Leishmania donovani, UniProt D7P7V3)
# Test: fluorogenic 4MU release assay, anti-HA affinity-purified enzyme
# Type: biochemical
# Settings: 150 µM substrate, McIlvaine buffer pH 6.0, 37 and 42 °C, 30 min
structure (smiles),measurement,value
CCCCCCCCCCCCCCCCCC(=O)Oc1ccc2c(C)cc(=O)oc2c1 [4MU-stearate],"fluorogenic 4MU release assay, anti-HA affinity-purified enzyme",LdLip3∷HA chimeric protein and pKSNEO controls were subsequently analyzed for lipase activity using 4MU-stearate
